Data from the supplement of paper PMC11208160.

assay: recombinant barcode read abundance after kanamycin selection (control-corrected) (log10(CPM+1)); higher = more efficient recombination; sequences stand for … in AGTGCAGAGAAAATCGGCCAGTTTTCTCTGCCTGCAGTCCGCATGCCGT…AGATTTATGCAGCGGACTGCCTTTCTCCCAAAGTGATAAACCGGACAGTATCATGGACCGGTTTTCCCGGTAATCCGTATTTGCAAGGTTGGTTTCACT; site = the 11-nt target
How it was run: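 Recombination efficiency in this pooled E. coli screen uses counts per million of barcodes at recombinant junctions, averaged and corrected against the control. The reported form is log10(CPM+1). Two replicates were plated on chloramphenicol/ampicillin LB agar as control and two on chloramphenicol/ampicillin/kanamycin with 0.1 mM IPTG.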
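Further: IS621 recombinase and bridge RNA in Escherichia coli cells.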

Row | Sequence | recombinant barcode read abundance (log10)
1 | CGGGGTTCTTGGGTTCTAACCTGTTGCCT (site CTGGGTTCTAG) | 0.0823
2 | CGGGTAACTTGGGTTCTAACCTGTTGCCT (site CGGGTAACTAG) | 0.0693
3 | CGGGTAACTTGGGTTCTAACCTGTTGCCT (site CTGGAAACTAG) | 0.0897
4 | CGGTAATCTTGGGTTCTAACCTGTTGCTT (site ACGTAATCTAA) | 0.0734
5 | CGGTAATCTTGGGTTCTAACCTGTTGCTT (site CGGTAATCTAA) | 0.161
6 | CGGTACACTTGGGTTCTAACCTGTTGCGG (site CGGAACACTCC) | 0.862
7 | CGGTACACTTGGGTTCTAACCTGTTGCGG (site CGGCACACTCC) | 2.48
8 | CGGTACACTTGGGTTCTAACCTGTTGCGG (site CGGGACACTCC) | 0.78
9 | CGGTACACTTGGGTTCTAACCTGTTGCGG (site CGGTACACTCC) | 3.14
10 | CGGTAGTCTTGGGTTCTAACCTGTTGCTG (site CGGTAGTCTAA) | 0.0345
11 | CGGTAGTCTTGGGTTCTAACCTGTTGCTG (site CGGTAGTCTCA) | 1.08
12 | CGGTGAACTTGGGTTCTAACCTGTTGCCT (site CAGTGAACTAG) | 0.109
13 | CGGTGAACTTGGGTTCTAACCTGTTGCCT (site CCGTGAACTAG) | 0.148
14 | CGGTGAACTTGGGTTCTAACCTGTTGCCT (site CGGTGAACTAG) | 1.16
15 | CGGTGAACTTGGGTTCTAACCTGTTGCCT (site CTGTGAACTAG) | 0.146
16 | CGTAAGCCTTGGGTTCTAACCTGTTGCAT (site CGCAAGCCTAT) | 0.265
17 | CGTAAGCCTTGGGTTCTAACCTGTTGCAT (site CGTAAGCCTAT) | 0.57
18 | CGTAGAGCTTGGGTTCTAACCTGTTGCCT (site AGTAGAACTAG) | 0.0247
19 | CGTAGAGCTTGGGTTCTAACCTGTTGCCT (site CGTAGAGCTAG) | 0.349
20 | CGTAGCTCTTGGGTTCTAACCTGTTGCCT (site CGAAGCTCTAG) | 0.133
21 | CGTAGCTCTTGGGTTCTAACCTGTTGCCT (site CGCAGCTCTAG) | 0.128
22 | CGTAGCTCTTGGGTTCTAACCTGTTGCCT (site CGGAGCTCTAG) | 0.134
23 | CGTAGCTCTTGGGTTCTAACCTGTTGCCT (site CGTAGCTCTAG) | 0.516
24 | CGTATCACTTGGGTTCTAACCTGTTGCCT (site CCGATCACTAG) | 0.0447
25 | CGTATCACTTGGGTTCTAACCTGTTGCCT (site CGTATCACTAG) | 0.0527
26 | CGTATGGCTTGGGTTCTAACCTGTTGCCT (site CGTATGGCTAG) | 0.349

Row | Sequence | recombinant barcode read abundance (log10)
27 | CGTATGGCTTGGGTTCTAACCTGTTGCCT (site CGTGGGGCTAG) | 0.279
28 | CGTCACCCTTGGGTTCTAACCTGTTGCCT (site CGTCAACCTAG) | 0.0616
29 | CGTCACCCTTGGGTTCTAACCTGTTGCCT (site CGTCACCCTAG) | 0.173
30 | CGTCACCCTTGGGTTCTAACCTGTTGCCT (site CGTCAGCCTAG) | 0.12
31 | CGTCACCCTTGGGTTCTAACCTGTTGCCT (site CGTCATCCTAG) | 0.126
32 | CGTCAGACTTGGGTTCTAACCTGTTGCCT (site CGTAAGACTAG) | 0
33 | CGTCAGACTTGGGTTCTAACCTGTTGCCT (site CGTCAGACTAG) | 0.109
34 | CGTCAGACTTGGGTTCTAACCTGTTGCCT (site CGTGAGACTAG) | 0.212
35 | CGTCAGACTTGGGTTCTAACCTGTTGCCT (site CGTTAGACTAG) | 0
36 | CGTCTACCTTGGGTTCTAACCTGTTGCTT (site AGTCTACCTAA) | 0.297
37 | CGTCTACCTTGGGTTCTAACCTGTTGCTT (site CGTCTACCTAA) | 0.242
38 | CGTCTCCCTTGGGTTCTAACCTGTTGCTT (site CGTATCCCTCA) | 0.108
39 | CGTCTCCCTTGGGTTCTAACCTGTTGCTT (site CGTCTCCCTAA) | 0.162
40 | CGTGAACCTTGGGTTCTAACCTGTTGCGT (site CGTAAACCTAC) | 2.19
41 | CGTGAACCTTGGGTTCTAACCTGTTGCGT (site CGTCAACCTAC) | 0.34
42 | CGTGAACCTTGGGTTCTAACCTGTTGCGT (site CGTGAACCTAC) | 2.79
43 | CGTGAACCTTGGGTTCTAACCTGTTGCGT (site CGTTAACCTAC) | 0.751
44 | CGTGCGGCTTGGGTTCTAACCTGTTGCCT (site AGTGCGGCTAG) | 0.0463
45 | CGTGCGGCTTGGGTTCTAACCTGTTGCCT (site CGTGCGGCTAG) | 0.486
46 | CGTGCGGCTTGGGTTCTAACCTGTTGCCT (site GGTGCGGCTAG) | 0.946
47 | CGTGCGGCTTGGGTTCTAACCTGTTGCCT (site TGTGCGGCTAG) | 0.0337
48 | CGTGCGTCTTGGGTTCTAACCTGTTGCCT (site AGTGCGTCTAG) | 0.208
49 | CGTGCGTCTTGGGTTCTAACCTGTTGCCT (site CGTGCGTCTAG) | 0.918
50 | CGTGCGTCTTGGGTTCTAACCTGTTGCCT (site GGTGCGTCTAG) | 0.38
51 | CGTGCGTCTTGGGTTCTAACCTGTTGCCT (site TGTGCGTCTAG) | 0.0337
52 | CGTGGGCCTTGGGTTCTAACCTGTTGCCT (site CATGGGCCTAG) | 0.295

Row | Sequence | recombinant barcode read abundance (log10)
53 | CGTGGGCCTTGGGTTCTAACCTGTTGCCT (site CCTGGGCCTAG) | 0.208
54 | CGTGGGCCTTGGGTTCTAACCTGTTGCCT (site CGTGGGCCTAG) | 0.0583
55 | CGTGGGCCTTGGGTTCTAACCTGTTGCCT (site CTTGGGCCTAG) | 0.0694
56 | CGTGGTCCTTGGGTTCTAACCTGTTGCCT (site CGTGGTCCTAA) | 0.0142
57 | CGTGGTCCTTGGGTTCTAACCTGTTGCCT (site CGTGGTCCTAC) | 0.413
58 | CGTGGTCCTTGGGTTCTAACCTGTTGCCT (site CGTGGTCCTAG) | 1.26
59 | CGTGGTCCTTGGGTTCTAACCTGTTGCCT (site CGTGGTCCTAT) | 0.657
60 | CGTTAACCTTGGGTTCTAACCTGTTGCGT (site CGTAAACCTAC) | 0.423
61 | CGTTAACCTTGGGTTCTAACCTGTTGCGT (site CGTCAACCTAC) | 1.48
62 | CGTTAACCTTGGGTTCTAACCTGTTGCGT (site CGTGAACCTAC) | 0.177
63 | CGTTAACCTTGGGTTCTAACCTGTTGCGT (site CGTTAACCTAC) | 1.37
64 | CGTTAGACTTGGGTTCTAACCTGTTGCCT (site CGTAAGACTAG) | 0.113
65 | CGTTAGACTTGGGTTCTAACCTGTTGCCT (site CGTCAGACTAG) | 0.267
66 | CGTTAGACTTGGGTTCTAACCTGTTGCCT (site CGTGAGACTAG) | 0.147
67 | CGTTAGACTTGGGTTCTAACCTGTTGCCT (site CGTTAGACTAG) | 0.469
68 | CGTTCAACTTGGGTTCTAACCTGTTGCCT (site CGTTCAACTAG) | 0.0537
69 | CGTTCAACTTGGGTTCTAACCTGTTGCCT (site CGTTCCACTAG) | 0.0618
70 | CGTTCAACTTGGGTTCTAACCTGTTGCCT (site CGTTCGACTAG) | 0.153
71 | CGTTCAACTTGGGTTCTAACCTGTTGCCT (site CGTTCTACTAG) | 0.0864
72 | CGTTCATCTTGGGTTCTAACCTGTTGCCT (site CGATCATCTAG) | 0
73 | CGTTCATCTTGGGTTCTAACCTGTTGCCT (site CGCTCATCTAG) | 0.0301
74 | CGTTCATCTTGGGTTCTAACCTGTTGCCT (site CGGTCATCTAG) | 0.0446
75 | CGTTCATCTTGGGTTCTAACCTGTTGCCT (site CGTTCATCTAG) | 0.0763
76 | CGTTCTACTTGGGTTCTAACCTGTTGCCT (site CGTTCAACTAG) | 0.0719
77 | CGTTCTACTTGGGTTCTAACCTGTTGCCT (site CGTTCCACTAG) | 0.286
